Assay results reported in patent publication EP0549352B1, “Tricyclic compounds as angiotensin II antagonists” (KYOWA HAKKO KOGYO CO., LTD., priority 1991, dated 1993).

These compounds were tested against T1, AII receptor (Bos taurus, UniProt P25104) (assay: Receptor binding test using bovine adrenal cortex ([125I]AII binding)). Settings: test compound 0.1 µM; receptor binding of [125I]AII (2.5 × 10^-10M); bovine adrenal cortex membranes; room temperature, 2 hours; 0.1 µM.
T1 construct: Tissue of bovine adrenal cortex was finely cut and suspended; from tissue; host or cells: bovine adrenal cortex membrane fraction
T1 sequence (P25104 1-359): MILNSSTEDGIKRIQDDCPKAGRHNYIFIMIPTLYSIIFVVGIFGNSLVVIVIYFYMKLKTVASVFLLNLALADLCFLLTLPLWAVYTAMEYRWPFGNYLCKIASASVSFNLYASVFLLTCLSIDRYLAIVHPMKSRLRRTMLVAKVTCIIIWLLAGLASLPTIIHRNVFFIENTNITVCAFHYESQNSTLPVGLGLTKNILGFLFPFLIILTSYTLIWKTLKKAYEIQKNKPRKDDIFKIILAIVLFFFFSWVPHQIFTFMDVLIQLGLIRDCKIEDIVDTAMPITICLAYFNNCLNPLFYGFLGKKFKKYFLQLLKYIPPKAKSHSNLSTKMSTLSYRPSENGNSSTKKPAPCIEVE
Description: Receptor binding test using bovine adrenal cortex
Tissue of bovine adrenal cortex was finely cut and suspended in a 0.25M sucrose solution containing NaHCO3, ethylenediaminetetraacetic acid (EDTA), leupepsin, pepstatin A and phenylmethanesulfonyl fluoride, followed by homogenization. The homogenate was centrifuged at 3,000 rpm for 10 minutes and the supernatant was centrifuged at 9,000 rpm. Then, the supernatant was further centrifuged at 30,000 rpm for 60 minutes and the precipitate was suspended in NaHCO3-EDTA solution, followed by centrifugation at 30,000 rpm for 60 minutes. The resulting precipitate was suspended in a phosphate buffer and the suspension was used for the binding test as an AII receptor source.
To a test compound or a solvent were added 250 µl of the AII receptor solution prepared above, 250 µl of Tris 50 mM buffer containing 0.2% bovine serum albumin (BSA), and 20 µl of [^125I]AII (2.5 × 10^-10M). The mixture was allowed to stand at room temperature for 2 hours and then filtered through a glass fiber filter (GF/B Wattman). The filter was placed in a test tube and the radioactivity was measured using a gamma-counter.
The inhibitory activity (inhibition rate) of the test compound (0.1 µM) against the receptor binding of [^125I]AII was calculated by the following equation. Inhibition Rate (%) =(1-((Binding Amount in the Presence of a Test Compound)-(Nonspecific Binding Amount))/((Total Binding Amount)-(Nonspecific Binding Amount)))× 100 [formula]
The binding amount in the presence of a test compound is the amount of radioactivity of [^125I]AII bound in the presence of a test compound (0.1 µM).
The total binding amount is the amount of radioactivity of [^125I]AII bound in the absence of a test compound.
The nonspecific binding amount is the amount of radioactivity of [^125I]AII bound in the presence of 1 µM AII.

Inhibition Rate (%)	Structure (SMILES)
88	CCc1nc2c(C)cc(C)nc2n1Cc1ccc2c(c1)CCc1ccccc1C2=Cc1nnn[nH]1 (single isomer, unassigned) [Compound 20B, 2-(5,7-Dimethyl-2-ethyl-3H-imidazo[4,5-b]pyridin-3-yl)methyl-5-(1H-tetrazol-5-yl)methylene-5H-10,11-dihydrodibenzo[a,d]cycloheptene]
87	CCc1nc2c(C)cc(C)nc2n1Cc1ccc2c(c1)OCc1ccccc1C2=Cc1nnn[nH]1 [Compound 6-E, 3-(5,7-Dimethyl-2-ethyl-3H-imidazo[4,5-b]pyridin-3-yl)methyl-11-(1H-tetrazol-5-yl)methylene-6,11-dihydrodibenz[b,e]oxepine]

Same assay, conditions: test compound 0.1 µM; receptor binding of [125I]AII (2.5 × 10^-10M); bovine adrenal cortex membranes; room temperature, 2 hours; listed as 6-Z*, 0.1 µM

Inhibition Rate (%)	Structure (SMILES)
66	CCc1nc2c(C)cc(C)nc2n1Cc1ccc2c(c1)OCc1ccccc1C2=Cc1nnn[nH]1 [Compound 6-Z, 3-(5,7-Dimethyl-2-ethyl-3H-imidazo[4,5-b]pyridin-3-yl)methyl-11-(1H-tetrazol-5-yl)methylene-6,11-dihydrodibenz[b,e]oxepine]

Same assay, conditions: test compound 0.1 µM; receptor binding of [125I]AII (2.5 × 10^-10M); bovine adrenal cortex membranes; room temperature, 2 hours; read-out: Inhibition Rate (%)

inhibition at 0.1 µM [%]	Structure (SMILES)
70	CCc1nc2c(C)cc(C)nc2n1Cc1ccc2c(c1)CCc1ccccc1C2=Cc1nnn[nH]1 (single isomer, unassigned) [Compound 20A, 2-(5,7-Dimethyl-2-ethyl-3H-imidazo[4,5-b]pyridin-3-yl)methyl-5-(1H-tetrazol-5-yl)methylene-5H-10,11-dihydrodibenzo[a,d]cycloheptene]
43	CCCc1nc2c(C)cccc2n1Cc1ccc2c(c1)OCc1ccccc1C2=CC(=O)O [Compound 1, [3-(4-Methyl-2-propylbenzimidazol-1-yl)methyl-6,11-dihydrodibenz[b,e]oxepin-11-yliden]acetic acid]
78	CCc1nc2c(C)cc(C)nc2n1Cc1ccc2c(c1)OCc1ccccc1C2=CC(=O)O [Compound 3, [3-(5,7-Dimethyl-2-ethyl-3H-imidazo[4,5-b]pyridin-3-yl)methyl-6,11-dihydrodibenz[b,e]oxepin-11-yliden]acetic acid]
77	CCc1nc2c(C)cc(C)nc2n1Cc1ccc2c(c1)C=Cc1ccc(F)cc1C2=CC(=O)O [Compound 4, [2-(5,7-Dimethyl-2-ethyl-3H-imidazo[4,5-b]pyridin-3-yl)methyl-7-fluoro-5H-dibenzo[a,d]cyclohepten-5-yliden]acetic acid]
52	CCc1nc2c(C)cc(C)nc2n1Cc1ccc2c(c1)OCc1ccc(Br)cc1C2=CC(=O)O [Compound 7, [9-Bromo-3-(5,7-dimethyl-2-ethyl-3H-imidazo[4,5-b]pyridin-3-yl)methyl-6,11-dihydrodibenz[b,e]oxepin-11-yliden]acetic acid]
84	CCc1nc2c(C)cc(C)nc2n1Cc1ccc2c(c1)OCc1ccsc1C2=CC(=O)O [Compound 11, [7-(5,7-Dimethyl-2-ethyl-3H-imidazo[4,5-b]pyridin-3-yl)methyl-4,10-dihydrothieno[3,2-c][1]benzoxepin-10-yliden]acetic acid]
72	CCc1nc2c(C)cc(C)nc2n1Cc1ccc2c(c1)C=Cc1sccc1C2=CC(=O)O [Compound 12, [7-(5,7-Dimethyl-2-ethyl-3H-imidazo[4,5-b]pyridin-3-yl)methyl-4H-benzo[4,5]cyclohepte[1,2-b]thiophen-4-yliden]acetic acid]
91	CCc1nc2c(C)cc(C)nc2n1Cc1ccc2c(c1)CCc1ccccc1C2=CC(=O)O [Compound 16, [2-(5,7-Dimethyl-2-ethyl-3H-imidazo[4,5-b]pyridin-3-yl)methyl-5H-10,11-dihydrodibenzo[a,d]cyclohepten-5-yliden]acetic acid]
81	CCc1nc2c(C)cc(C)nc2n1Cc1ccc2c(c1)COc1ccccc1C2=Cc1nnn[nH]1 [Compound 18-Z, 8-(5,7-Dimethyl-2-ethyl-3H-imidazo[4,5-b]pyridin-3-yl)methyl-11-(1H-tetrazol-5-yl)methylene-6,11-dihydrodibenz[b,e]oxepine]
14	CCc1nc2c(C)cc(C)nc2n1Cc1ccc2c(c1)C=Cc1c(Br)cccc1C2=Cc1nnn[nH]1 [Compound 19, 1-Bromo-8-(5,7-dimethyl-2-ethyl-3H-imidazo[4,5-b]pyridin-3-yl)methyl-5-(1H-tetrazol-5-yl)methylene-5H-dibenzo[a,d]cycloheptene]
80	CCc1nc2c(C)cc(C)nc2n1Cc1ccc2c(c1)SCc1ccccc1C2=Cc1nnn[nH]1 [Compound 22-E, 3-(5,7-Dimethyl-2-ethyl-3H-imidazo[4,5-b]pyridin-3-yl)methyl-11-(1H-tetrazol-5-yl)methylene-6,11-dihydrodibenzo[b,e]thiepine]
61	CCc1nc2c(C)cc(C)nc2n1Cc1ccc2c(c1)OCc1ccccc1C2CC(=O)O (centres unmarked) [Compound 23, [3-(5,7-Dimethyl-2-ethyl-3H-imidazo[4,5-b]pyridin-3-yl)methyl-6,11-dihydrodibenz[b,e]oxepin-11-yl]acetic acid]
94	CCc1nc2c(C)cc(C)nc2n1Cc1ccc2c(c1)OCc1ccccc1C2Cc1nnn[nH]1 (centres unmarked) [Compound 25, 3-(5,7-Dimethyl-2-ethyl-3H-imidazo[4,5-b]pyridin-3-yl)methyl-11-(1H-tetrazol-5-yl)methyl-6,11-dihydrodibenz[b,e]oxepine]
83	CCc1nc2c(C)cc(C)nc2n1Cc1ccc2c(c1)CCc1ccccc1C2Cc1nnn[nH]1 (centres unmarked) [Compound 28, 2-(5,7-Dimethyl-2-ethyl-3H-imidazo[4,5-b]pyridin-3-yl)methyl-5-(1H-tetrazol-5-yl)methyl-5H-10,11-dihydrodibenzo[a,d]cycloheptene]
92	Cc1cc(C)c2nc(C3CC3)n(Cc3ccc4c(c3)CCc3ccccc3C4Cc3nnn[nH]3)c2n1 (centres unmarked) [Compound 29, 2-(5,7-Dimethyl-2-cyclopropyl-3H-imidazo[4,5-b]pyridin-3-yl)methyl-5-(1H-tetrazol-5-yl)methyl-5H-10,11-dihydrodibenzo[a,d]cycloheptene]
88	CCc1nc2c(C)cc(C)nc2n1Cc1ccc2c(c1)CCc1ccccc1N2CC(=O)O [Compound 33, 5-Carboxymethyl-2-(5,7-dimethyl-2-ethyl-3H-imidazo[4,5-b]pyridin-3-yl)methyl-5H-10,11-dihydrodibenz[b,f]azepine]
97	Cc1cc(C)c2nc(C3CC3)n(Cc3ccc4c(c3)CCc3ccccc3N4Cc3nnn[nH]3)c2n1 [Compound 34, 2-(5,7-Dimethyl-2-cyclopropyl-3H-imidazo[4,5-b]pyridin-3-yl)methyl-5-(1H-tetrazol-5-yl)methyl-5H-10,11-dihydrodibenz[b,f]azepine]
68	CCc1nc2c(C)cc(C)nc2n1Cc1ccc2c(c1)CCc1ccccc1N2Cc1ccccc1C(=O)O [Compound 38, 2-[[2-(5,7-Dimethyl-2-ethyl-3H-imidazo[4,5-b]pyridin-3-yl)methyl-5H-10,11-dihydrodibenz[b,f]azepin-5-yl]methyl]benzoic acid]
95	CCCCC(=O)N(Cc1ccc2c(c1)CCc1ccccc1N2Cc1nnn[nH]1)C(C(=O)O)C(C)C (centres unmarked) [Compound 40, N-[[5-(1H-Tetrazol-5-yl)methyl-5H-10,11-dihydrodibenz[b,f]azepin-2-yl]methyl]-N-valerylvaline]
85	CCc1nc2c(C)cc(C)nc2n1Cc1ccc2c(c1)c1ccccc1n2CCc1nnn[nH]1 [Compound 42, 3-(5,7-Dimethyl-2-ethyl-3H-imidazo[4,5-b]pyridin-3-yl)methyl-9-[2-(1H-tetrazol-5-yl)ethyl]carbazole]
